How the values were obtained:
[1] = Pharmacokinetics after oral gavage or intravenous injection; type: in vivo, CD1 mice; settings: after a single oral dose
Experimental: (§1) Cohorts of N=12 athymic mice bearing human PCa PC3-M cell orthotopic implants (a), or of N=5 non-tumor bearing athymic mice (b), were treated with KBU2046 incorporated into chow, and resultant lung metastasis (a) or plasma KBU2046 concentration (b) measured. Values are the mean±SEM. The relationship between dose and metastasis was evaluated by two-sided ANOVA (a). FIG. 2c a comprehensive characterization of KBU2046 pharmacokinetics. CD1 mice were dosed with 100 mg KBU2046/kg via oral gavage or intravenous injection (iv), and blood collected at the indicated time points (data from mice dosed at 25 mg/kg are in FIG. 12, and corroborate 100 mg/kg findings). For each route and time point, N=3 mice were sampled. Individual data points are the resultant plasma concentrations from individual mice, and are the mean of N=2 measurements. The dotted horizontal line denotes a concentration of 24 nM, which was the concentration of KBU2046 measured in the blood of mice whose metastasis were suppressed by 92% (a-b). […]
KBU2046 Quantification and Pharmacokinetics. […]
Plasma KBU2046 concentrations were measured in duplicate by liquid chromatography-tandem mass spectrometry after sample preparation by solid-phase extraction. […] The mass-to-charge ratios of the precursor-to-product ion reactions monitored were 243.5→125.1 for KBU2046 and 257.0→165.0 for the internal standard. […]

[2] = tested on: human PCa PC3-M cell orthotopic implants; assay: Murine orthotopic implantation model of human PCa (lung metastasis); type: in vivo, athymic mice; settings: mice treated as in FIG. 2a
Experimental: as §1, with “For each route and time point, N=3 mice were sampled. Individual data points are the resultant plasma concentrations from individual mice, and are the mean of N=2 measurements.” left out
Prostate cancer: orthotopic implantation. Orthotopic implantation of human GFP-PC3-M PCa cells into 6-8 week male Balb/c athymic mice (Charles River Laboratories) and quantification of distant metastasis was performed as described (Pavese, J. et al., J Vis Exp, e50873 (2013)). […] Metastasis were scored in a blinded fashion. Specifically, animals were assigned an ID number, resultant histologic slides contained a separate pathological ID number, slides were scored in a random fashion, after which the two numbers were linked up.

O=C1c2ccccc2OCC1c1ccc(F)cc1 (racemic) [KBU2046, (±)-3(4-fluorophenyl)chroman-4-one]
maintenance of plasma concentrations >24 nM [1]: 9.3 h
primary tumor growth (tumor weight) [2]: does not inhibit primary tumor cell growth

— patent US20210293825A1, “METHODS FOR PRECISION THERAPEUTIC TARGETING OF HUMAN CANCER CELL MOTILITY AND KITS THEREOF” (UNITED STATES GOVERNMENT AS REPRESENTED BY THE DEPARTMENT …, priority 2018, published 2021)
